Laboratory results published in patent publication US20120064528A1, “METHODS AND REAGENTS FOR QUANTIFYING NUCLEIC ACID FRAGMENTATION AND APOPTOSIS (QLM-PCR, CELL NUMBER QPCR AND APOQPCR)” (THE MACFARLANE BURNET INSTITUTE FOR MEDICAL RESEARCH AND …, priority 2010, published 2012).
“Also recorded” adds a separate entry of the source.

Assays:
Jurkat cells [1] = experiment: Genomic DNA fragmentation by agarose gel electrophoresis and trace intensity; format: cell-based, human; details: 5 hours
Experimental: Jurkat cells were grown to log phase in RF-10 tissue culture medium, pelleted and resuspended to 10^6 cells/ ml in new RF-10 at 37° C., and incubated at 37° C. with or without staurosporine (at 4 or 8 μM) for 5 and 6 hours. At the end-points, genomic DNA was purified using Qiagen DNA mini-prep columns following the manufacturer's recommendations, including RNase treatment and stored at −80° C. These columns quantitatively purify nucleic acid in the target size range of 200 by to 50 kbp. Nucleic acid for each end-point was compared by agarose gel electrophoresis. The generation of 100% apoptotic nucleic acid was defined as the complete absence of any typically high molecular weight genomic nucleic acid and complete conversion of this length of nucleic acid into apoptotic fragments, as determined by trace intensity using a GelDoc Imager (BioRad). […] The same experiment from cell culture to nucleic acid purification was repeated to test reproducibility. Nucleic acid from both experiments was electrophoresed together and trace intensities compared (FIG. 2C).

Jurkat cells [2] = experiment: Apoptosis measured by TUNEL with flow cytometry; format: cell-based, human
Experimental: To verify the definition of 100% apoptotic DNA, apoptosis was measured by TUNEL with flow cytometry from fractions of the same cultured cells used for genomic nucleic acid purification (above). At each time point and each staurosporine concentration, cells (6 ml) were collected, washed twice with PBS and resuspended in PBS to 2×10^7 cells/ml for duplicate 100 μl cells per micro-well. TUNEL procedure for cell suspensions followed the In Situ Cell Death Detection Kit, Flourescein (Roche, Mannheim, Germany) with the following modifications: after pelleting cells in wells, supernatant was aspirated and cells gently resuspended in 100 μl/well of fixation/permeabilisation solution (Cytofix/Cytoperm kit, BD Biosciences/Pharmingen, CA, USA). After incubation for 20 minutes at 4° C., cells were washed at this and subsequent wash stages 2 times at room temperature with perm/wash buffer (Cytofix/Cytoperm kit). After final washes, cells were resuspended in 250 μl/well 1% paraformaldehyde in PBS, stored at 4° C. in the dark for up to 12 hours and analyzed by flow cytometry at excitation 488 nm, detection 530 nm using a BD FACScan (BD Biosciences). At each measurement at least 10,000 events were sorted. Mean TUNEL positivity for cells incubated for 5 hours without staurosporine was 3%, while positivity for cells incubated for 5 hours with 8 μM staurosporine was 98.5% (FIG. 3).

Compound: CN[C@@H]1C[C@H]2O[C@@](C)([C@@H]1OC)n1c3ccccc3c3c4c(c5c6ccccc6n2c5c31)C(=O)NC4 [staurosporine]
- unfragmented high molecular weight genomic nucleic acid remaining, by trace quantification (Jurkat cells [1]; 4 μM staurosporine, 37° C.): 1.8%
- DNA fragmentation as determined by trace analysis (Jurkat cells [1]; 8 μM staurosporine, 37° C. (optimal conditions)): all DNA was fragmented; also recorded: unfragmented nucleic acid was not detected
- Mean TUNEL positivity (Jurkat cells [2]; 8 μM staurosporine, 5 hours): 98.5%
- apoptotic cells by TUNEL with flow cytometry (FACS) (Jurkat cells [2]; optimal test conditions): 99%
